Source: ChEMBL document CHEMBL1126967, “Synthetic pterocarpans with anti-HIV activity” (Bioorg Med Chem Lett, 1993)

Columns and labels:
CCRF-CEM [1] = test: Compound tested in Vitro for inhibition of cytopathic activity of HIV-1 on T4 lymphocytes (CEM cells); assay type: functional, cell-based; conditions: Homo sapiens
CCRF-CEM [2] = test: Compound tested in Vitro for inhibition of cytopathic activity of HIV-1 on T4 lymphocytes (CEM cells); Inactive; assay type: functional, cell-based, Homo sapiens
CCRF-CEM [3] = test: Compound tested in vitro for inhibition of cytopathic activity of AZT-resistant HIV-1 on T4 lymphocytes (CEM cells); assay type: functional, cell-based; conditions: Homo sapiens
CCRF-CEM [4] = test: Compound tested in vitro for inhibition of cytopathic activity of AZT-resistant SIV on T4 lymphocytes (CEM cells): IA denotes inactive; assay type: functional, cell-based, Homo sapiens
CCRF-CEM [5] = test: Compound tested in vitro for inhibition of cytopathic activity of AZT-sensitive HIV-1 on T4 lymphocytes (CEM cells); assay type: functional, cell-based; conditions: Homo sapiens
CCRF-CEM [6] = test: Compound tested in vitro for inhibition of cytopathic activity of AZT-sensitive HIV-2 on T4 lymphocytes (CEM cells): IA denotes inactive; assay type: functional, cell-based, Homo sapiens
CCRF-CEM [7] = test: Compound tested in vitro for inhibition of cytopathic activity of AZT-sensitive SIV on T4 lymphocytes (CEM cells): IA denotes inactive; assay type: functional, cell-based, Homo sapiens
CCRF-CEM [8] = test: Compound tested in vitro for inhibition of cytopathic activity of Merck-resistant variant of AZT-resistant HIV-l (A17) on T4 lymphocytes (CEM cells): IA denotes inactive; assay type: functional, cell-based, Homo sapiens
CCRF-CEM [9] = test: Compound tested in vitro for inhibition of cytopathic activity of Merck-resistant variant of AZT-sensitive HIV-l (A17) on T4 lymphocytes (CEM cells): IA denotes inactive; assay type: functional, cell-based, Homo sapiens
CCRF-CEM [10] = test: Compound tested in vitro for inhibition of cytopathic activity of HIV-1 on T4 lymphocytes (CEM cells); assay type: functional, cell-based; conditions: Homo sapiens
CCRF-CEM [11] = test: Compound tested in vitro for inhibition of cytopathic activity of AZT-resistant HIV-2 on T4 lymphocytes (CEM cells): IA denotes inactive; assay type: functional, cell-based, Homo sapiens

SMILES	EC50 (CCRF-CEM [1])	IC50 (CCRF-CEM [1])	EC50 (CCRF-CEM [2])	IC50 (CCRF-CEM [2])	further results
COc1ccc2c(c1)OCC1c3cc(O)c(OCc4cccc5ccccc45)cc3OC21 (stereo not given)	0.43 µM	38.5 µM			
COc1cc2c(c(C)c1O)C1COc3ccccc3C1O2 (stereo not given)			Not Active	Not Active	
COc1ccc2c(c1)OCC1c3cc(O)c(OCC(C)C)cc3OC21 (stereo not given)	2.28 µM	24.5 µM			
COc1cc2c(cc1O)C1COc3ccccc3C1O2 (stereo not given)			Not Active	Not Active	
COc1ccc2c(c1)OCC1c3ccc(OCc4ccccc4)cc3OC21 (stereo not given)	31.2 µM	200 µM			
COC(=O)c1c(O)ccc2c1C1COc3cc(OC)ccc3C1O2 (stereo not given)			Not Active	Not Active	
COc1ccc2c(c1)OC1c3ccc(OC)cc3OCC21 (stereo not given)			Not Active	Not Active	
COc1ccc2c(c1)OCC1c3cc(CC=C(C)C)c(OCc4ccccc4)cc3OC21 (stereo not given)			Not Active	Not Active	
COc1ccc2c(c1)OCC1c3cc(O)c(OC)cc3OC21 (stereo not given)			Not Active	Not Active	
COC(=O)c1c(O)ccc2c1C1COc3ccccc3C1O2 (stereo not given)			Not Active	Not Active	
COc1ccc2c(c1)OCC1c3cc(OC)c(OCc4ccccc4)cc3OC21 (stereo not given)	5.7 µM	69.4 µM			
COc1ccc2c(c1)OCC1c3cc4c(cc3OC21)OCO4 (stereo not given)			Not Active	Not Active	
Oc1cc2c(cc1OCc1ccccc1)OC1c3ccccc3OCC21 (stereo not given)			Not Active	Not Active	
COc1ccc2c(c1)OCC1c3cc(O)c(OCc4ccc5ccccc5c4)cc3OC21 (stereo not given)	3.35 µM	34.2 µM			
COc1ccc2c(c1)OCC1c3cc(O)c(OCc4ccccc4)cc3OC21 (stereo not given)					EC50 (CCRF-CEM [3]): 1.3 µM; EC50 (CCRF-CEM [4]): Not Active; EC50 (CCRF-CEM [5]): 3.6 µM; EC50 (CCRF-CEM [6]): Not Active; EC50 (CCRF-CEM [7]): Not Active; EC50 (CCRF-CEM [8]): Not Active; EC50 (CCRF-CEM [9]): Not Active; EC50 (CCRF-CEM [10]): 1.21 µM; IC50 (CCRF-CEM [10]): 40.5 µM; EC50 (CCRF-CEM [11]): Not Active
COc1ccc2c(c1)OCC1c3cc(O)c(OCC4CCCCC4)cc3OC21 (stereo not given)	1.46 µM	22.2 µM			
